Experimental data as given in ChEMBL document CHEMBL3992485 (Medchemcomm, 2016).
The source made the active and inactive calls. The rule behind the calls is not given here.

Legend:
[1] = tested on: HepG2; test: Antiproliferative activity against human HepG2 cells measured after 24 hrs by MTT assay; assay type: functional, cell-based; settings: HepG2, 24 h
[2] = tested on: MCF7; test: Antiproliferative activity against human MCF7 cells measured after 24 hrs by MTT assay; assay type: functional, cell-based; settings: MCF7, 24 h
[3] = tested on: A549; test: Antiproliferative activity against human A549 cells measured after 24 hrs by MTT assay; assay type: functional, cell-based; settings: A549, 24 h
[4] = Antiproliferative activity against human 293T cells measured after 24 hrs by MTT assay; assay type: cell-based; settings: 293T (HEK-293T) cells
[5] = Inhibition of tubulin polymerization in bovine brain assessed as reduction in tubulin assembly after 20 mins by spectrophotometric method; set-up: species or system Bos taurus
[6] = tested on: HeLa; test: Cell cycle arrest in human HeLa cells assessed as accumulation at G2/M phase after 24 hrs by propidium iodide staining based flow cytometry; assay type: functional
[7] = tested on: HeLa; test: Cell cycle arrest in human HeLa cells assessed as accumulation at G1 phase at 0.1 uM after 24 hrs by propidium iodide staining based flow cytometry (reference value: 85.81%); assay type: functional
[8] = tested on: HeLa; test: Cell cycle arrest in human HeLa cells assessed as accumulation at G2/M phase at 0.1 uM after 24 hrs by propidium iodide staining based flow cytometry (reference value: 2.15%); assay type: functional
[9] = tested on: HeLa; test: Cell cycle arrest in human HeLa cells assessed as accumulation at G2/M phase at 0.2 uM after 12 hrs by propidium iodide staining based flow cytometry (reference value: 2.15%); assay type: functional
[10] = tested on: HeLa; test: Cell cycle arrest in human HeLa cells assessed as accumulation at G1 phase at 0.4 uM after 12 hrs by propidium iodide staining based flow cytometry (reference value: 85.81%); assay type: functional
[11] = tested on: HeLa; test: Cell cycle arrest in human HeLa cells assessed as accumulation at G2/M phase at 0.4 uM after 12 hrs by propidium iodide staining based flow cytometry (reference value: 2.15%); assay type: functional
[12] = tested on: HeLa; test: Cell cycle arrest in human HeLa cells assessed as accumulation at G2/M phase at 0.8 uM after 12 hrs by propidium iodide staining based flow cytometry (reference value: 2.15%); assay type: functional
[13] = tested on: HeLa; test: Cell cycle arrest in human HeLa cells assessed as accumulation at G1 phase at 0.5 uM after 12 hrs by propidium iodide staining based flow cytometry (reference value: 79.19%); assay type: functional
[14] = tested on: HeLa; test: Cell cycle arrest in human HeLa cells assessed as accumulation at S phase at 0.5 uM after 12 hrs by propidium iodide staining based flow cytometry (reference value: 33.78%); assay type: functional
[15] = tested on: HeLa; test: Cell cycle arrest in human HeLa cells assessed as accumulation at G2/M phase at 0.5 uM after 12 hrs by propidium iodide staining based flow cytometry (reference value: 8.14%); assay type: functional
[16] = tested on: HeLa; test: Cell cycle arrest in human HeLa cells assessed as accumulation at G1 phase at 0.5 uM after 24 hrs by propidium iodide staining based flow cytometry (reference value: 79.19%); assay type: functional
[17] = tested on: HeLa; test: Cell cycle arrest in human HeLa cells assessed as accumulation at S phase at 0.5 uM after 24 hrs by propidium iodide staining based flow cytometry (reference value: 33.78%); assay type: functional
[18] = tested on: HeLa; test: Cell cycle arrest in human HeLa cells assessed as accumulation at S phase at 0.5 uM after 36 hrs by propidium iodide staining based flow cytometry (reference value: 33.78%); assay type: functional
[19] = tested on: HeLa; test: Induction of apoptosis in human HeLa cells after 24 hrs by Annexin-V-FITC/propidium iodide staining based flow cytometry; assay type: functional, cell-based
[20] = tested on: HeLa; test: Induction of apoptosis in human HeLa cells at 0.5 uM by Annexin-V-FITC/propidium iodide staining based flow cytometry; assay type: functional, cell-based; settings: TDE = time-dependent effect
[21] = tested on: HeLa; test: Induction of apoptosis in human HeLa cells assessed as viable cells at 0.1 uM after 24 hrs by Annexin-V-FITC/propidium iodide staining based flow cytometry (reference value: 94.4%); assay type: functional; settings: read-out: Activity
[22] = tested on: HeLa; test: Induction of apoptosis in human HeLa cells assessed as early apoptotic cells at 0.1 uM after 24 hrs by Annexin-V-FITC/propidium iodide staining based flow cytometry (reference value: 2.41%); assay type: functional
[23] = tested on: HeLa; test: Induction of apoptosis in human HeLa cells assessed as late apoptotic cells at 0.1 uM after 24 hrs by Annexin-V-FITC/propidium iodide staining based flow cytometry (reference value: 3.1%); assay type: functional
[24] = tested on: HeLa; test: Induction of apoptosis in human HeLa cells assessed as necrotic cells at 0.1 uM after 24 hrs by Annexin-V-FITC/propidium iodide staining based flow cytometry (reference value: 0.084%); assay type: functional
[25] = tested on: HeLa; test: Induction of apoptosis in human HeLa cells assessed as viable cells at 0.2 uM after 24 hrs by Annexin-V-FITC/propidium iodide staining based flow cytometry (reference value: 94.4%); assay type: functional; settings: read-out: Activity
[26] = tested on: HeLa; test: Induction of apoptosis in human HeLa cells assessed as early apoptotic cells at 0.2 uM after 24 hrs by Annexin-V-FITC/propidium iodide staining based flow cytometry (reference value: 2.41%); assay type: functional
[27] = tested on: HeLa; test: Induction of apoptosis in human HeLa cells assessed as late apoptotic cells at 0.2 uM after 24 hrs by Annexin-V-FITC/propidium iodide staining based flow cytometry (reference value: 3.1%); assay type: functional
[28] = tested on: HeLa; test: Induction of apoptosis in human HeLa cells assessed as necrotic cells at 0.2 uM after 24 hrs by Annexin-V-FITC/propidium iodide staining based flow cytometry (reference value: 0.084%); assay type: functional
[29] = tested on: HeLa; test: Induction of apoptosis in human HeLa cells assessed as viable cells at 0.8 uM after 24 hrs by Annexin-V-FITC/propidium iodide staining based flow cytometry (reference value: 94.4%); assay type: functional; settings: read-out: Activity
[30] = tested on: HeLa; test: Induction of apoptosis in human HeLa cells assessed as early apoptotic cells at 0.8 uM after 24 hrs by Annexin-V-FITC/propidium iodide staining based flow cytometry (reference value: 2.41%); assay type: functional
[31] = tested on: HeLa; test: Induction of apoptosis in human HeLa cells assessed as viable cells at 0.5 uM after 12 hrs by Annexin-V-FITC/propidium iodide staining based flow cytometry (reference value: 91%); assay type: functional; settings: read-out: Activity
[32] = tested on: HeLa; test: Induction of apoptosis in human HeLa cells assessed as late apoptotic cells at 0.5 uM after 24 hrs by Annexin-V-FITC/propidium iodide staining based flow cytometry (reference value: 2.64%); assay type: functional
[33] = tested on: HeLa; test: Induction of apoptosis in human HeLa cells assessed as early apoptotic cells at 0.5 uM after 36 hrs by Annexin-V-FITC/propidium iodide staining based flow cytometry (reference value: 6.02%); assay type: functional
[34] = tested on: HeLa; test: Induction of apoptosis in human HeLa cells assessed as late apoptotic cells at 0.5 uM after 36 hrs by Annexin-V-FITC/propidium iodide staining based flow cytometry (reference value: 2.64%); assay type: functional
[35] = tested on: HeLa; test: Induction of apoptosis in human HeLa cells assessed as necrotic cells at 0.5 uM after 36 hrs by Annexin-V-FITC/propidium iodide staining based flow cytometry (reference value: 0.35%); assay type: functional
[36] = tested on: HeLa; test: Inhibition of microtubule polymerization in human HeLa cells assessed as abnormal chromatin distribution at 0.2 uM after 24 hrs by DAPI staining based confocal microscopic analysis; assay type: cell-based
[37] = tested on: HeLa; test: Inhibition of microtubule polymerization in human HeLa cells assessed as effect on microtubule organization at 0.2 uM after 24 hrs by DAPI staining based confocal microscopic analysis; assay type: cell-based

- IC50 [1]: 490 nM
- IC50 [2]: 350 nM
- IC50 [3]: 590 nM
- IC50 [5]: 1820 nM
SMILES: CCn1cc(C(=O)N2CCN(S(=O)(=O)c3c(C(C)C)cc(C(C)C)cc3C(C)C)CC2)c2ccccc21
- CC50 at 24 h [4]: 424000 nM
- Activity [6]: Dose-dependent effect
- Activity [7]: 54.97%
- Activity [8]: 15.09%
- Activity [9]: 20.46%
- Activity [10]: 22.09%
- Activity [11]: 51.71%
- Activity [12]: 83.61%
- Activity [13]: 42.86%
- Activity [14]: 51.97%
- Activity [15]: 18.43%
- Activity [16]: 5.23%
- Activity [17]: 55.73%
- Activity [18]: 53.25%
- Activity [19]: Dose-dependent effect
- Activity [20]: Tde
- viability at 0.1 µM [21]: 85.1%
- Activity [22]: 9%
- Activity [23]: 5.71%
- Activity [24]: 0.141%
- viability at 0.2 µM [25]: 71%
- Activity [26]: 21.7%
- Activity [27]: 7.24%
- Activity [28]: 0.098%
- viability at 0.8 µM [29]: 44%
- Activity [30]: 32.6%
- viability at 0.5 µM [31]: 87.9%
- Activity [32]: 6.84%
- Activity [33]: 25.3%
- Activity [34]: 21.2%
- Activity [35]: 0.329%
- inhibition [36]: Active
- inhibition [37]: Active
